Reference: the supplement of paper PMC10307832

Legend:
Assay in all cases: relative viability (nuclei count vs DMSO), 5 days (fraction); higher = more cells survive
[1] = compound: COc1cc2nc(N3CCCN(C)CC3)nc(NC3CCN(Cc4ccccc4)CC3)c2cc1OC + CC(=O)c1c(C)c2cnc(Nc3ccc(N4CCNCC4)cn3)nc2n(C2CCCC2)c1=O [Palbociclib] (partner 0.5 µM)
Method in brief: (§1)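 For relative viability, nuclei counts in treated wells were divided by those in vehicle wells. Lung cancer cell lines had been pin-tool dosed in 1536-well plates the day after seeding and cultured for 5 days, then fixed and stained in one step (final 0.05% Triton X-100, 1% formaldehyde, 1 ug/ml Hoechst) and imaged at 4×. Doses were one drug alone or a fixed anchor-drug dose plus five library-drug doses (not always all listed) in √10 steps, and values are duplicate-plate medians.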

[2] = compound: COc1cc2nc(N3CCCN(C)CC3)nc(NC3CCN(Cc4ccccc4)CC3)c2cc1OC + Cc1nc(NC(=O)N2CCC[C@H]2C(N)=O)sc1-c1ccnc(C(C)(C)C(F)(F)F)c1 [Alpelisib] (partner 2 µM)
Method in brief: as §1

[3] = compound: Cc1cc([C@@H](C)Nc2ccccc2C(=O)O)c2nc(N3CCOCC3)cc(=O)n2c1 [AZD6482] + Nc1nc2[nH]cc(CCc3ccc(C(=O)N[C@@H](CCC(=O)O)C(=O)O)cc3)c2c(=O)[nH]1 [Pemetrexed] (partner 0.2 µM)
Method in brief: as §1

[4] = compound: Cc1cc([C@@H](C)Nc2ccccc2C(=O)O)c2nc(N3CCOCC3)cc(=O)n2c1 [AZD6482] + CS(=O)(=O)N1CCN(Cc2cc3nc(-c4cccc5[nH]ncc45)nc(N4CCOCC4)c3s2)CC1 [Pictilisib] (partner 1 µM)
Method in brief: as §1

Cell Line	relative viability ([1]; first compound 0.2 µM)	relative viability ([1]; first compound 0.6325 µM)	relative viability ([1]; first compound 2 µM)	relative viability ([1]; first compound 6.325 µM)	relative viability ([2]; first compound 0.2 µM)	relative viability ([2]; first compound 0.6325 µM)	relative viability ([2]; first compound 2 µM)	relative viability ([2]; first compound 6.325 µM)	relative viability ([3]; first compound 0.08 µM)	relative viability ([3]; first compound 0.253 µM)	relative viability ([3]; first compound 0.8 µM)	relative viability ([3]; first compound 2.53 µM)	relative viability ([3]; first compound 8 µM)	relative viability ([4]; first compound 0.08 µM)	relative viability ([4]; first compound 0.253 µM)	relative viability ([4]; first compound 0.8 µM)	relative viability ([4]; first compound 2.53 µM)	relative viability ([4]; first compound 8 µM)
PC-14	0.536	0.477	0.446	0.0369	0.981	0.918	1.05	0.901	0.133	0.125	0.115	0.15	0.135	0.575	0.632	0.591	0.376	0.771
NCI-H1437	0.29	0.319	0.32	0.279	0.995	0.971	1.12	0.828	0.314	0.307	0.306	0.274	0.225	0.471	0.326	0.473	0.319	0.392
NCI-H460	0.101	0.237	0.084	0.0622	0.481	0.483	0.42	0.242	0.0644	0.0667	0.0599	0.0555	0.0589	0.332	0.336	0.379	0.249	0.331
NCI-H1666	0.644	0.633	0.648	0.633	0.924	0.993	0.951	0.461	0.902	0.964	0.905	0.735	0.82	0.437	0.547	0.558	0.437	0.405
NCI-H1651	0.518	0.5	0.515	0.522	0.921	0.915	1.16	1.1	0.578	0.545	0.556	0.401	0.482	0.596	0.58	0.569	0.432	0.508
NCI-H1755	0.446	0.452	0.393	0.399	0.979	0.844	0.916	0.871	0.416	0.435	0.436	0.383	0.36	0.274	0.317	0.372	0.213	0.43
NCI-H661	0.417	0.429	0.426	0.387	0.556	0.64	0.809	0.774	0.94	1.01	0.974	0.74	0.803	0.326	0.353	0.484		0.356
HARA	0.21	0.312	0.252	0.278	0.798	0.823	0.858	0.87	0.217	0.241	0.278	0.254	0.253	0.254	0.395	0.423		0.59
NCI-H23	0.475	0.522	0.521	0.415	0.623	0.693	0.775	0.675	0.651	0.484	0.715	0.375	0.43	0.465	0.482	0.452	0.356	0.494
LCLC-97TM1	0.219	0.231	0.254	0.238	0.241		0.243	0.258	0.15	0.166	0.164		0.162	0.246	0.175	0.245	0.176	0.146
EPLC-272H	0.326	0.322	0.316	0.346	0.952	0.904	1.05	0.912	0.24	0.382	0.383	0.424	0.269	0.325		0.297	0.287	0.333
NCI-H1915	0.527	0.504	0.607	0.461	1.06	0.998	1.1	1.1	0.491	0.434	0.513	0.349	0.452	0.886	0.916	1.03	0.79	0.909
NCI-H2405	0.554	0.493	0.522	0.514	0.784	0.772	0.835	0.632	0.81	0.977	0.987	0.569	0.436	0.31		0.559	0.381	0.386
NCI-H322M	0.468	0.531	0.435	0.481	0.741	0.814	0.781	0.68	0.572	0.61	0.62	0.49	0.498	0.485	0.399	0.475	0.353	0.498
NCI-H2170	0.383	0.406	0.37	0.352	0.838	0.805	0.851	0.835	0.257	0.242	0.265	0.252	0.251	0.285	0.261	0.307	0.258	0.317
NCI-H1395	0.642	0.605	0.618	0.565	1.1	1.04	1.07	0.589	0.742	0.552	0.591	0.45	0.521	0.549	0.459	0.536	0.422	0.438
NCI-H358	0.147	0.118	0.141	0.139	0.935	0.888	1.01	0.533	0.16	0.174	0.164	0.154	0.145	0.274	0.386	0.276	0.202	0.358
NCI-H838	0.185	0.229	0.213	0.212	1.04	1.14	1.09	0.853	0.287	0.264	0.25	0.226	0.232	0.461	0.464	0.442	0.339	0.487
